{"source": "patent US20180110747A1", "about": "“USE OF THIA OXO COMPOUNDS FOR LOWERING APO C3” (Pronova Biopharma Norge AS, priority 2015, published 2018)", "key": {"[1]": {"tested_on": "plasma apoC-III and other lipid parameters", "experiment": "Example 25B Phase II clinical study, mixed dyslipidemia (TG 200-499 mg/dL) on statins, 12 weeks", "type": "in vivo, human", "details": "600 mg QD", "experimental": "This study investigated patients with fasting plasma TG levels between 200 and 499 mg/dL and non-high density lipoprotein cholesterol (non-HDL-C) above 130 mg/dL already receiving treatment with statins. The primary objective of this study was to evaluate the efficacy of Compound A (Example 2) 600 mg QD orally by assessment of the percentage change in triglycerides non-HDL-C from baseline after 12. weeks of treatment. One of the secondary objectives was to evaluate the impact of Compound A on plasma levels of apoC-III.\n(§1) This Phase II, multicenter, proof of concept study consisted of a 6- to 8-week screening period (which included a 4- or 6-week diet and lifestyle stabilization/washout period and a 2-week TG and non-HDL-C qualifying period), and a 12-week, double-blind, randomized, parallel group, placebo-controlled treatment period.\nAfter confirmation of qualifying fasting TG and non-HDL-C values, eligible subjects entered the 12-week, randomized, double-blind treatment period. At Visit 4 (Week 0), subjects were randomly assigned in a 1:1 ratio to 1 of the following treatment groups: Compound A 600 mg QD or placebo QD.\n(§2) The population for this study was men and women (women of childbearing potential were required to use adequate methods to avoid pregnancy) between the ages of 18 to 79 years of age, inclusive. Subjects on stable lipid-lowering statin therapy and subjects not on non-statin lipid-lowering therapy were eligible to enroll in the study. Subjects were required to have an average fasting TG level between 200 and 499 mg/L and non-HDL-C values above 130 mg/dL from Visit 2 and Visit 3 values or Visit 3 and Visit 3.1 values prior to randomization.\nThe ITT Population was the primary analysis population. All efficacy analyses were performed on the ITT Population.\n(§3) Summary statistics (n, mean, standard deviation [SD], median, minimum, and maximum) for the baseline and post-baseline measurements, the percent changes, or changes from baseline were presented by treatment group and by visit for all efficacy variables analyzed.\n(§4) The primary efficacy analysis was performed using an ANCOVA model with randomization as factor and baseline non-HDL-C value as a covariate. The least-squares means, standard errors, and 2-tailed 95% CIs for each treatment group and for the comparison between Compound A and placebo were provided.\nThe primary efficacy analysis was based on the […].\nThe population recruited for the current study included men (58.4%) and women ([…]) with a mean age of 58.3 years. All subjects were required to be on statin therapy (with or without ezetimibe) during the study. All other non-statin lipid-altering medications were discontinued at screening. Mean compliance to study medication during the study was 97.2% for the placebo group and 95.3% for the Compound A group.\nThe baseline mean non-HDL-C level for the study population was 165.9 mg/dL; the baseline median TG level was 262.0 mg/dL."}, "Apo C-III": {"tested_on": "Apo C-III", "experiment": "Example 25C Phase Ib clinical study, hypercholesterolemia, 4 weeks", "type": "in vivo, human", "details": "600 mg QD, male hypercholesterolemic subjects withdrawn from statin, statistically significant", "experimental": "This study investigated subjects with fasting LDL-C of at least […] (˜97 mg/dl). The objective of the study was to determine the pharmacodynamics and lipid lowering effects of Compound A (Example 2) following 4 weeks of treatment in male, hypercholesterolemic subjects withdrawn from stable statin therapy.\nThe population for this study consisted of men between 18 and 65 years of any ethnic origin and with a BMI between 18.0 and 35.0 kg/m^2.\nThis Phase Ib study consisted of a 4-5 week screening period, and a 4 week double-blind, randomized, placebo-controlled treatment period.\nAll subjects had to be on lipid-lowering statin therapy for at least 3 months prior to the first screening visit, and at stable statin dose for at least 4 weeks prior to the first screening vist.\nStatin treatment was withdrawn at the first screening visit, and remained withdrawn for the entire screening period. […]\nBlood lipids were measured at the end of the screening period and after 4 weeks of treatment, Exploratory pharmacodynamic measurements included LDL-C, VLDL-C, TC, TO, HDL-C, Non-HDL-C, and Apo B. The impact of Compound A on Apo C-III was also measured.\nSummary statistics for baseline is given as mean with coefficient of variance. The mean changes from baseline with 95% confidence intervals were presented by treatment group for efficacy variables analyzed. […]"}, "[2]": {"tested_on": "plasma apoC-III and other lipid parameters", "experiment": "Example 25A Phase II clinical study, severe hypertriglyceridemia (TG above 500 mg/dL), 12 weeks", "type": "in vivo, human", "details": "600 mg QD", "experimental": "This study investigated patients with fasting plasma triglyceride levels above 500 mg/dL The primary objective of this study was to evaluate the efficacy of Compound A (Example 2) 600 mg once daily (QD) orally by assessment of the percentage change in triglycerides (TG) from baseline after 12 weeks of treatment. One of the secondary objectives was to evaluate the impact of Compound A on plasma levels of apoC-III.\nas §1, with “TG” for “TG and non-HDL-C”\nAfter confirmation of qualifying fasting TG values, eligible subjects entered the 12-week, randomized, double-blind treatment period. At Visit 4 (Week 0), subjects were randomly assigned in a 1:1 ratio to 1 of the following treatment groups: Compound A 600 mg QD or placebo QD.\nApproximately 43 subjects per treatment group (approximately 86 subjects total) were to be randomized in this study. Stratification was by baseline TG level (≤700 mg/dL or >700 mg/dL), statin use at randomization, and gender.\nas §2, with “non-statin” for “non-statin lipid-lowering”, “≥500 mg/dL,” for “between 200”, “≤1500” for “499 mg/L and non-HDL-C values above 130”\nThe ITT Population was the primary analysis population, All efficacy analyses were performed on the ITT Population.\nas §3\nas §4, with “analysis of covariance (ANCOVA)” for “ANCOVA”, “with treatment, gender, and the use of statin therapy at” for “with”, “factors” for “factor”, “TG” for “non-HDL-C”, “confidence intervals (CIs)” for “CIs”\nAn ANCOVA model was used for the analysis of secondary efficacy variables with treatment, gender, and the use of statin therapy at randomization as factors and the baseline value of the respective efficacy variable as a covariate.\nThe population recruited for the current study included men (69.0%) and women (31.0%) with a mean age of 52.5 years. approximately 21% of subjects in both treatment groups received statin therapy through the study. All other non-statin lipid-altering medications were discontinued at screening. Mean compliance to study medication during the study was 96.5% for the placebo group and 99.9% for the Compound A 600 mg group."}, "apoC-III": {"tested_on": "apoC-III", "experiment": "Hepatic apoC-III gene expression in APOE*3Leiden transgenic mice on Western-type diet", "type": "in vivo, mouse", "details": "0.3 mmol/kg bw/day orally as admix to WTD, 4 weeks", "description": "The APOE*3Leiden transgenic mouse is expressing a variant of the human apolipoprotein E3 (APOE3), the APOE*3Leiden, in addition to the human apolipoprotein C1 (APOC1). […] In contrast to normal wild-type mice, the APOE*3Leiden transgenic mice are highly responsive to diet and hypolipidemic drugs affecting plasma VLDL and chylomicron levels (Van Vlijmen B et al, Diet-induced hyperlipoproteinemia and atherosclerosis in apolipoprotein E3-Leiden transgenic mice, J Clin Invest 1994; 93: 1403-1410; Groot PHE, et al. Quantitative assessment of aortic atherosclerosis in apoE3Leiden transgenic mice and its relationship to serum cholesterol exposure, Arterioscler Thromb Vase Biol 1996; 16: 926-933). Consequently, this model is appropriate to evaluate effects of lipid lowering drugs.\nIn this study, female APOE*3Leiden transgenic mice were put on a semi-synthetic Western-type diet (WTD; 15% cocoa butter, 40% sucrose and 0.25% cholesterol; all w/w). […]\nLiver tissues were stored in RNA later (Qiagen) at −80° C. […] Each sample was measured in 3 parallels, and the results are presented as the mean value relative to control (WTD without addition), The fold change in gene expression was calculated by the ΔΔCt method, using Rplp0 as housekeeping gene and the mean of the control samples as calibrator."}, "[3]": {"experiment": "In-vitro digestion studies in a bio relevant media", "type": "in vitro ADME", "description": "Examples 1-23 are exemplary and one skilled in the art would understand how to apply these general methods to arrive at other compounds within the scope of Formula (I). Compounds of the present disclosure may be in the form of a pharmaceutically acceptable salt or ester. For example, the compounds of Formula (I) may be in the form of esters, such as a phospholipid, a glyceride or a C1-C6-alkyl ester. In at least one embodiment, the ester is chosen from a glyceride or a C1-C6-alkyl ester. In at least one embodiment, the ester is chosen from a triglyceride, a 1,2 diglyceride, a 1,3-diglyceride, a 1-monoglyceride, a 2-monoglyceride, a methyl ester, an ethyl ester, a propyl ester, a isopropyl ester, a n-butyl ester and a tert-butyl ester. In at least one embodiment, the compound of Formula (I) is present as a methyl ester, an ethyl ester, an isopropyl ester, a n-butyl ester or a tert-butyl ester, for example as a methyl ester or an ethyl ester."}, "[4]": {"details": "mixed dyslipidemia, TG = 200-499 mg/dl, on statin, 12 weeks"}, "[5]": {"details": "subjects with TG >500 mg/dl, 12 weeks"}}, "data": [{"smiles": "CC/C=C\\C/C=C\\C/C=C\\C/C=C\\C/C=C\\CCCCOC(CC)C(=O)O", "note": "(centres unmarked) [Compound A, 2-((5Z,8Z,11Z,14Z,17Z)-icosa-5,8,11,14,17-pentaen-1-yloxy)butanoic acid]", "values": [{"measurement": "LS mean percent change in ApoC-III vs placebo", "setting": "[1]; 12-week completer population, 95% CI (−28.8, −12.7)", "value": "−20.8", "unit": "%"}, {"measurement": "LS mean percent change in apoC-III vs baseline", "setting": "[1]; 12-week completer population, 95% CI (−38.4, −26.6)", "value": "−32.5", "unit": "%"}, {"measurement": "Apo B, median % change from baseline", "setting": "[1]; [4]", "value": "−6", "unit": "%"}, {"measurement": "ApoC-III, median % change from baseline", "setting": "[1]; [4]", "value": "−35", "unit": "%"}, {"measurement": "LDL-C, median % change from baseline", "setting": "[1]; [4]", "value": 0, "unit": "%"}, {"measurement": "Non-HDL-C, median % change from baseline", "setting": "[1]; [4]", "value": "−10", "unit": "%"}, {"measurement": "TG, median % change from baseline", "setting": "[1]; [4]", "value": "−43", "unit": "%"}, {"measurement": "VLDL-C, median % change from baseline", "setting": "[1]; [4]", "value": "−39", "unit": "%"}, {"measurement": "median reduction in apoC-III", "setting": "[1]; mixed dyslipidemic patient population", "value": 35, "unit": "%"}, {"measurement": "mean percent change in Apo C-III vs baseline", "setting": "Apo C-III", "value": "−42", "unit": "%"}, {"measurement": "LS mean percent change in apoC-III versus placebo", "setting": "[2]; 12 weeks, ITT Population, 95% CI (−46.5, −22.8)", "value": "−34.7", "unit": "%"}, {"measurement": "LS mean percent change in apoC-III vs baseline", "setting": "[2]; 12 weeks, ITT Population, 95% CI (−47.5, −28.5)", "value": "−38.0", "unit": "%"}, {"measurement": "median reduction in apoC-III", "setting": "[2]; severe HTG patient population", "value": 41, "unit": "%"}, {"measurement": "ApoC-III, median % change from baseline", "setting": "[2]; [5]", "value": "−41", "unit": "%"}, {"measurement": "HDL-C, median % change from baseline", "setting": "[2]; [5]", "value": 24, "unit": "%"}, {"measurement": "LDL-C, median % change from baseline", "setting": "[2]; [5]", "value": 43, "unit": "%"}, {"measurement": "Non-HDL-C, median % change from baseline", "setting": "[2]; [5]", "value": "−8", "unit": "%"}, {"measurement": "TG, median % change from baseline", "setting": "[2]; [5]", "value": "−51", "unit": "%"}, {"measurement": "VLDL-C, median % change from baseline", "setting": "[2]; [5]", "value": "−51", "unit": "%"}, {"measurement": "effect on hepatic apoC-III expression compared with reference Compound 12", "setting": "apoC-III", "value": "more potent"}, {"measurement": "hepatic apoC-III expression versus mice fed a standard WTD (FIG. 1)", "setting": "apoC-III; P<0.05, Student T-test", "value": "significantly lower"}]}, {"smiles": "CC/C=C\\C/C=C\\C/C=C\\C/C=C\\C/C=C\\CCCCOC(CC)C(=O)OCCCC", "note": "(centres unmarked) [Example 15, butyl 2-(((5Z,8Z,11Z,14Z,17Z)-icosa-5,8,11,14,17-pentaen-1-yl)oxy)butanoate]", "values": [{"measurement": "hydrolysis in the gastrointestinal tract, from in-vitro digestion", "setting": "[3]", "value": "rapidly hydrolyzed"}]}, {"smiles": "CC/C=C\\C/C=C\\C/C=C\\C/C=C\\C/C=C\\CCCCOC(CC)C(=O)OCC", "note": "(centres unmarked) [Example 12, ethyl 2-((5Z,8Z,11Z,14Z,17Z)-icosa-5,8,11,14,17-pentaen-1-yloxy)butanoate]", "values": [{"measurement": "hydrolysis in the gastrointestinal tract, from in-vitro digestion", "setting": "[3]", "value": "rapidly hydrolyzed"}]}]}
